Laboratory results published in US20040081655A1, “Methods and compositions comprising polycationic compounds” (priority 2001, published 2004).
“Also recorded” adds a separate entry of the source.

Columns and labels:
[1] = system: CD11c+ sorted BM-DC; assay: CpG-ODN-induced production of TNF-α and IL-6 by murine BM-DC in vitro, KLK (Example 7); format: cell-based, C57B1/6 mice; details: 24 h; for production of IL-6 by murine BM-DC / production of TNF-a by murine BM-DC: substance alone (KLK 16, 8 μg/ml; CpG-ODN 1668 0.5 nmol/ml), supernatant ELISA
Method: (§1) Murine dendritic cells (DC) were generated from bone-marrow precursor cells of C57Bl/6 mice as previously described (Inaba 1992). Briefly, bone marrow cells were obtained by flushing the femurs and tibias with medium. Cells were depleted of lymphocytes, granulocytes and MHC class II^+cells by Ab-complement-mediated lysis. Dead cells were removed by Ficoll gradient (Ficoll Separating Solution, density […]; Biochrom KG, Germany). The remaining cells (1×10^6/ml) were cultured in 24-well culture plates in high glucose DMEM medium (PAA Laboratories GmbH, Linz, Austria; E 15-009) supplemented with 10% heat-inactivated FCS, 10. mM sodium pyruvate, 2 mM L-glutamine, […] gentamicin, 0.5 mM 2-mercaptoethanol (all supplements from PAA Laboratories GmbH, Linz, Austria), 20 ng/ml GM-CSF and 250 U/ml IL-4. On day 3 of culture, cells were fed with fresh medium. On day 6 of culture, non-adherent cells and loosely adherent aggregates were harvested, washed and re-plated in 6-well culture plates (2×10^6/5 ml). After additional 1 day of culture, non-adherent cells were collected for analyses. […] For in vitro-stimulations, day 7-cultured bone marrow cells were further enriched for CD11c^+ cells (=DC) using magnetic beads (Miltenyi, Bergisch-Gladbach, Germany). The purity of BM-DC was more than 95% as determined by flow cytometry analyses. […] Supernatants were harvested after 24 h and analysed for the production of TNF-α and IL-6 using specific ELISAs.
Murine dendritic cells (DC) were generated from bone-marrow precursor cells of C57B1/6 mice as described in example 5.

[2] = system: CD11c+ sorted BM-DC; assay: CpG-ODN-induced production of TNF-α and IL-6 by murine BM-DC in vitro, poly-L-arginine (Example 5); format: cell-based, C57Bl/6 mice; details: 24 h; for production of IL-6 by murine BM-DC / production of TNF-α by murine BM-DC: substance alone (poly-L-arginine 10 μg/ml; CpG-ODN 1668 1 nmol/ml), supernatant ELISA
Method: as §1

[3] = system: TNF-a and IL-6; assay: BCG/CpG-ODN-induced systemic production of TNF-a and IL-6 in vivo, serum ELISA (Example 8); parameters: species or system Mice C57Bl/6
Method: (§2) Mice were injected subcutaneously into the flank with a total volume of 100 μl, containing the above mentioned compounds. One hour after injection blood was taken from the tail-vein and serum was prepared. The amount of the pro-inflammatory cytokines TNF-a and IL-6 in the sera was determined by cytokine-specific ELISAs according to the manufacturer's instructions (R&D Systems, Inc., Minneapolis, Minn.).

[4] = system: TNF-α and IL-6; assay: CpG-ODN-induced systemic production of TNF-α and IL-6 in vivo, serum ELISA (Example 4); parameters: species or system Mice C57Bl/6; details: for production of IL-6 in serum after injection / production of TNF-α in serum after injection: one hour after injection into hind footpads, ELISA
Method: as §2, with “injected” for “injected subcutaneously”, “each hind footpad” for “the flank”, “μl (50 μl per footpad),” for “μl,”, “TNF-α” for “TNF-a”

[5] = system: human dendritic cells; assay: LPS-induced production of pro-inflammatory cytokines by human dendritic cells in vitro (Example 10); details: for LPS-induced production of pro-inflammatory cytokines by human dendritic cells: in vitro, mode of incubation not specified; for production of IL-6 by human dendritic cells / production of TNF-a by human dendritic cells: substance alone (LPS 5 ng/ml; pR60 10 μg/ml; KLK 16, 8 μg/ml; pK 10 μg/ml), culture medium 12 h then substance 12 h
Method: Human DC were generated from monocytes. Briefly, peripheral blood leukocytes (PBLs) were isolated from buffy coats of healthy volunteers by Ficoll gradient centrifugation. Monocytes were isolated from PBLs using CD14-coated magnetic beads (Miltenyi Biotec Inc., Germany) applied according to the manufacturer's instructions. Using this method, we obtained >95% CD14^+ cells as determined by flow cytometry. These CD14^+ monocytes were cultured in RPMI 1640 medium supplemented with 10% FCS (PAA Laboratories, Linz, Austria), non-essential aminoacids, L-glutamin, gentamicin, sodium pyruvate, 100 ng/ml human GM-CSF and 500 U/ml human IL-4 in 6-well tissue plates for 6-7 days. To this end, the cultures contained >80%. MHC class II^+/CD1a^+ cells (=DC).
Human dendritic cells (DC) were generated as described in example 6. For in vitro-stimulations, day 7-cultured dendritic cells were incubated for 12 h with the indicated compounds. After centrifugation, supernatant was removed, cells were washed once with medium, then fresh medium with the indicated compounds was added, and the cells were incubated for additional 12 h. Supernatants were harvested and analyzed for the production of TNF-a and IL-6 using specific ELISAs.

[6] = system: human monocyte-derived DC; assay: Poly I:C-induced production of pro-inflammatory cytokines by human DC in vitro (Example 6); format: cell-based; details: for production of IL-6 by human DC / production of TNF-α by human DC / production of IL-12/p70 by human DC: substance alone, 10 μg/ml, supernatant ELISA; for poly I:C-induced production of pro-inflammatory cytokines by human DC: poly I:C and pR60 together, in vitro
Method: Human DC were generated from monocytes.
To determine, which cytokines are induced/produced by DC upon poly I:C and/or pR stimulation, DC were incubated with different stimuli for 12 and 24 hours, supernatants were harvested, stored at −20° C. and screened for the presence of respective cytokines by specific ELISAs.

[7] = system: murine bone-marrow-derived dendritic cells; assay: LPS-induced production of pro-inflammatory cytokines by murine bone-marrow-derived dendritic cells in vitro (Example 9); format: cell-based, C57Bl/6 mice
Method: Murine dendritic cells (DC) were generated from bone-marrow precursor cells of C57Bl/6 mice as previously described (Inaba 1992). Briefly, bone marrow cells were obtained by flushing the femurs and tibias with medium. Cells were depleted of lymphocytes, granulocytes and MHC class II^+cells by Ab-complement-mediated lysis. Dead cells were removed by Ficoll gradient (Ficoll Separating Solution, density […]; Biochrom KG, Germany). The remaining cells (1×10^6/ml) were cultured in 24-well culture plates in high glucose DMEM medium (PAA Laboratories GmbH, Linz, Austria; E 15-009) supplemented with 10% heat-inactivated FCS, 10. mM sodium pyruvate, 2 mM L-glutamine, […] gentamicin, 0.5 mM 2-mercaptoethanol (all supplements from PAA Laboratories GmbH, Linz, Austria), 20 ng/ml GM-CSF and 250 U/ml IL-4. On day 3 of culture, cells were fed with fresh medium. On day 6 of culture, non-adherent cells and loosely adherent aggregates were harvested, washed and re-plated in 6-well culture plates (2×10^6/5 ml). After additional 1 day of culture, non-adherent cells were collected for analyses. […] For in vitro-stimulations, day 7-cultured bone marrow cells were further enriched for CD11c^+ cells (=DC) using magnetic beads (Miltenyi, Bergisch-Gladbach, Germany). The purity of BM-DC was more than 95% as determined by flow cytometry analyses.
Murine dendritic cells (DC) were generated from bone-marrow precursor cells of C57Bl/6 mice as described in example 5.

[8] = one hour after s.c. injection into the flank, ELISA
[9] = cells pre-incubated with polycationic compound 12 h, then LPS 12 h
[10] = mixture of LPS and polycationic compound, 12 h
[11] = mixture of CpG-ODN 1668 (0.5 nmol/ml) and KLK (16, 8 μg/ml)
[12] = cells pre-incubated with poly-L-arginine 12 h, then LPS 12 h
[13] = mixture of LPS/poly-L-arginine, 12 h
[14] = substance alone (LPS 10 ng/ml; pR60 10 μg/ml), culture medium 12 h then substance 12 h
[15] = mixture of CpG-ODN 1668 (1 nmol/ml) and poly-L-arginine (10 μg/ml)
[16] = poly-L-arginine co-injected with OVA257-264-peptide and CpG-ODN, serum one hour after injection
[17] = mixture of pIC (10 μg/ml) and pR (10 μg/ml), 12 and 24 hours
[18] = BCG vaccine and CpG-ODN co-injected with poly-L-arginine, serum one hour after injection

tcc atg acg ttc ctg atg ct (TCCATGACGTTCCTGATGCT; chemistry not given here) [CpG-ODN 1668, phosphothioate-modified oligodinucleotides containing a CpG-motif, reference compound]
production of IL-6 by murine BM-DC [1]: induces the production
production of TNF-a by murine BM-DC [1]: induces the production
production of IL-6 by murine BM-DC ([2]; listed as CPG-ODN 1668): induces the production
production of TNF-α by murine BM-DC ([2]; listed as CPG-ODN 1668): induces the production
production of IL-6 by murine BM-DC ([2]; listed as CpG-ODN): significant amounts of both cytokines are produced
production of TNF-α by murine BM-DC ([2]; listed as CpG-ODN): significant amounts of both cytokines are produced
production of IL-6 in serum after injection [3, 8]: induces the systemic production
production of TNF-a in serum after injection [3, 8]: induces the systemic production

CC[C@H](C)[C@H](NC(=O)[C@@H](NC(=O)[C@@H](N)CO)[C@@H](C)CC)C(=O)N[C@@H](CC(N)=O)C(=O)N[C@@H](Cc1ccccc1)C(=O)N[C@@H](CCC(=O)O)C(=O)N[C@@H](CCCCN)C(=O)N[C@@H](CC(C)C)C(=O)O [OVA257-264, reference compound]
production of IL-6 in serum after injection [4]: does not-induce the production of detectable amounts
production of TNF-α in serum after injection [4]: does not-induce the production of detectable amounts
production of IL-6 in serum after injection ([4]; listed as OVA257-264-peptide): neither the injection of OVA257-264-peptide alone nor in combination with poly-L-arginine led to the induction of significant amounts
production of TNF-α in serum after injection ([4]; listed as OVA257-264-peptide): neither the injection of OVA257-264-peptide alone nor in combination with poly-L-arginine led to the induction of significant amounts

KLKLLLLLKLK [synthetic peptide containing at least 2 KLK-motifs separated by a linker of hydrophobic amino acids]
LPS-induced production of IL-6 by human dendritic cells [5, 9]: inhibited
LPS-induced production of TNF-a by human dendritic cells [5, 9]: inhibited
LPS-induced production of pro-inflammatory cytokines by human dendritic cells [5]: decrease
LPS-induced production of IL-6 by human dendritic cells [5, 10]: inhibited
LPS-induced production of TNF-a by human dendritic cells [5, 10]: inhibited
production of IL-6 by human dendritic cells [5]: could not detect any
production of TNF-a by human dendritic cells [5]: could not detect any
CpG-ODN 1668-induced production of IL-6 by murine BM-DC [1, 11]: inhibited; also recorded: abrogates
CpG-ODN 1668-induced production of TNF-a by murine BM-DC [1, 11]: inhibited; also recorded: abrogates
production of IL-6 by murine BM-DC [1]: could not detect any
production of TNF-a by murine BM-DC [1]: could not detect any

Poly-D-lysine Hydrobromide
LPS-induced production of IL-6 by human dendritic cells [5, 9]: inhibited
LPS-induced production of TNF-a by human dendritic cells [5, 9]: inhibited
LPS-induced production of pro-inflammatory cytokines by human dendritic cells [5]: decrease
LPS-induced production of IL-6 by human dendritic cells [5, 10]: inhibited
LPS-induced production of TNF-a by human dendritic cells [5, 10]: inhibited
production of IL-6 by human dendritic cells [5]: could not detect any
production of TNF-a by human dendritic cells [5]: could not detect any

Polyinosinic-polycytidylic acid [poly I:C, reference compound]
production of IL-6 by human DC ([6]; 12 and 24 hours): triggers the production
production of TNF-α by human DC ([6]; 12 and 24 hours): triggers the production
production of IL-12/p70 by human DC [6]: produced IL-12/p70

Poly-L-Arginine
LPS-induced production of IL-6 by human dendritic cells [5, 9]: inhibited
LPS-induced production of TNF-a by human dendritic cells [5, 9]: inhibited
LPS-induced production of pro-inflammatory cytokines by human dendritic cells [5]: decrease
LPS-induced production of IL-6 by human dendritic cells [5, 10]: inhibited
LPS-induced production of TNF-a by human dendritic cells [5, 10]: inhibited
production of IL-6 by human dendritic cells [5]: could not detect any
production of TNF-a by human dendritic cells [5]: could not detect any
LPS-induced production of IL-6 by murine BM-DC [7, 12]: inhibited
LPS-induced production of TNF-a by murine BM-DC [7, 12]: inhibited
LPS-induced production of pro-inflammatory cytokines by murine bone-marrow-derived dendritic cells ([7]; in vitro, mode of incubation not specified): decrease
LPS-induced production of IL-6 by murine BM-DC [7, 13]: inhibited
LPS-induced production of TNF-a by murine BM-DC [7, 13]: inhibited
production of IL-6 by murine BM-DC [7, 14]: could not detect any
production of TNF-a by murine BM-DC [7, 14]: could not detect any
CpG-ODN 1668-induced production of IL-6 by murine BM-DC [2, 15]: inhibited; also recorded: abrogates
CpG-ODN 1668-induced production of TNF-α by murine BM-DC [2, 15]: inhibited; also recorded: abrogates
production of IL-6 by murine BM-DC [2]: could not detect any; also recorded: neither TNF-α nor IL-6 were detectable
production of TNF-α by murine BM-DC [2]: could not detect any; also recorded: neither TNF-α nor IL-6 were detectable
CpG-ODN-induced systemic production of IL-6 [4, 16]: inhibited; also recorded: prevents; also recorded: totally abolished
CpG-ODN-induced systemic production of TNF-α [4, 16]: inhibited; also recorded: prevents; also recorded: totally abolished
poly I:C-induced IL-6 production by human DC [6, 17]: inhibited
poly I:C-induced TNF-α production by human DC [6, 17]: inhibited
poly I:C-induced production of pro-inflammatory cytokines by human DC [6]: abrogates; also recorded: inhibits
poly I:C-induced production of pro-inflammatory cytokines by human DC ([6]; listed as pR): can be inhibited
production of IL-6 by human DC ([6]; 12 and 24 hours): could not detect any
production of TNF-α by human DC ([6]; 12 and 24 hours): could not detect any
production of IL-12/p70 by human DC [6]: could not detect any
BCG/CpG-ODN-induced systemic production of IL-6 [3, 18]: inhibited; also recorded: prevents
BCG/CpG-ODN-induced systemic production of TNF-a [3, 18]: inhibited; also recorded: prevents
